Assay results taken from patent US9745348B2 (The University of Manchester, priority 2011, dated 2017).
Where no end group is shown, it is not given here. The star is where a group is joined. FITC = O=C1OC2(c3ccc(O)cc3Oc3cc(O)ccc32)c2ccc(NC(=S)*)cc21; Ahx = NCCCCCC(=O)O

Key:
[1] = test system: human red blood cells (hRBCs); experiment: Hemolytic activity, hemoglobin release; type: cell-based; settings: up to 250 μM, 1 h at 37° C.
Protocol: Peptide hemolytic activities were measured by determining hemoglobin release by 4% (v/v) suspensions of fresh human erythrocytes at 540 nm. Fresh human red blood cells (hRBCs) from volunteers were centrifuged and washed three times with PBS (pH7.4). 100 μL of hRBCs suspended in PBS at 8% (v/v) were mixed with 100 µL of different series of 2-fold diluted peptides in a sterile 96-well plate. The plates were incubated for 1 h at 37° C., and centrifuged at 1000 g for 5 min. 100 μL aliquots of the supernatant were transferred to new 96-well plates, and hemoglobin release monitored by measuring supernatant absorbance at 540 nm with a microplate ELISA Reader. As negative and positive controls, hRBCs in PBS and 0.1% Triton X-100 were employed. The hemolysis percentage was calculated using the follow equation: % hemolysis=[(Abs540 nm with peptide−Abs540 nm in PBS)/[(Abs540 nm with 0.1% Triton X-100−Abs540 nm in PBS)×100 Observing Bacterial Membrane Lysis by Fluorescence Microscopy

[2] = in vitro; type: cell-based; settings: human, neonatal fibroblasts (HDFn cells)
Protocol: (§1) MTT assay: Cell viability and proliferation is widely assessed by the MTT assay as already described previously.
The fibroblasts cells, Neonatal (HDFn) and Adult (HDFa), were both grown until greater than 80% confluent. The cells were then harvested and seeded into micro well plate at cell densities of 5000 cells/well in a volume […] of medium. After 24 hour incubation the culture medium was replaced with fresh medium containing an appropriate amount of the peptide for investigation.

[3] = test system: E. coli DH5α and B. subtilis 168; type: cell-based, Escherichia coli; Bacillus subtilis; settings: 1 h
Protocol: To determine antibacterial activity of peptides, survival rate curves were constructed. Bacteria (E. coli DH5α or B. subtilis 168) were incubated with peptide at varying peptide concentrations at 37° C. for 1 h. Aliquots of 2 μL were withdrawn, diluted and spread on agar plates. After overnight incubation at 37° C., the surviving bacteria were expressed as the percentage of total cells, and survival curves drawn (FIG. 4). Controls were bacteria without peptide. The minimal inhibitory concentrations (MICs) of each peptide were measured by standard microdilution method. The test was done in sterile 96-well plates in a final volume of 200 μL. Aliquots (100 μL) of a bacterial suspension at 1×10^5 (colony-forming units (CFU)/ml) in culture medium were added to […] peptide solution (2-fold serial dilutions in 10 mM PBS buffer). […] The MIC was defined as the lowest concentration of peptide for which there was no visible growth. Each determination was performed at least three times.

[4] = MTT viability of fibroblasts over three days; type: cell-based, human; settings: human, adult fibroblasts (HDFa cells)
Protocol: as §1
The fibroblasts cells, Neonatal (HDFn) and Adult (HDFa), were both grown until greater than 80% confluent. […] After 24 hour incubation the culture medium was replaced with fresh medium containing an appropriate amount of the peptide for investigation.
The viability of the fibroblasts, Adult (HDFa) and Neonatal (HDFn) cells in the presence of surfactants was tested by MTT assay over three days relative to control wells containing cells only.

[5] = test system: HeLa and HL60 cancer cell lines; settings: 24 h
Protocol: Antitumor activities of peptides were measured using the 3-(4,5-dimethylthiazol-2-yl)-2,-diphenyl tetrazolium bromide (MTT) assay, and the IC50 value was calculated as the concentration of peptide that induced 50% growth inhibition compared to the untreated control.
HeLa and HL60 cells were seeded in 96-well plates (10^5 cells/well) in a complete medium [Iscove's modified dulbecco's medium (IMDM)] with 10% fetal bovine serum (FBS) for 24 h before peptide treatment. […] Following incubation with peptides, 20 μL of a 5 mg/ml solution MTT reagent was added to each well and incubated for 4 h at 37° C. After removing the supernatant, 150 μL of dimethyl sulfoxide (DMSO) was added to dissolve the formazan crystals that remained in the wells. The absorbance was determined using a microplate ELISA Reader at 570 nm. Wells without cells for blanking the spectrophotometer and the cells without peptides were taken as negative controls.

[6] = test system: cytokine genes IL2 and IL8 of human lymphocytes; settings: 10 μM, 1 h
Protocol: RT-PCR (Reverse Transcription Polymerase Chain Reaction and Real Time Polymerase Chain Reaction): To determine the related gene transcriptional activities about HeLa cell apoptosis and the lymphocyte immunological effects, RT-PCR assays were performed. […] Total RNA from the cells was extracted by Trizol following the manufacturer's instructions (Invitrogen, Britain). Total RNA (1 μg) was subject to cDNA synthesis with random primers (PrimeScript Reverse Transcriptase, Takara, Japan). Real-Time PCR was performed with power SYBR green PCR Master Mix kit (Applied Biosystems, American) using a 7500 real-time PCR system (Applied Biosystems, American) according to the protocol of the manufacturer, and the data were analyzed by relative quantitation of the 2^−ΔΔCt method. Transcriptional levels of related genes were normalized to the values of the house keeping gene β-actin.

[7] = test system: NIH 3T3 cells co-cultured with B. subtilis 168 or HL60 cancer cells; experiment: Co-culture selectivity, distribution of FITC-labeled peptide by fluorescence microscopy; type: cell-based; settings: 20 μM, 1 hour incubation
Protocol: To further verify the selective cytotoxicity of G(IIKK)3I-NH2 (SEQ ID NO: 3) in vitro, we added the FITC-labeled G(IIKK)3I-NH2 (SEQ ID NO: 3) to the two co-culture systems containing mammalian cell line NIH 3T3 (model host) and bacteria B. subtilis 168 or cancer cell line (HL 60). Specifically, NIH 3T3 cells were cultured at 37° C. with 5% CO2 in IMDM supplemented with 10% FBS. After reaching an over 80% confluence, the cells were transferred into a 6-well plate containing sterile coverslips at bottom to a final concentration of 1×10^5 cells/well. After overnight culture at 37° C., the medium was replaced with 1 ml B. subtilis 168 suspended in PBS with a density of 1×10^6 CFU/ml or 1 ml HL 60 cells suspended in PBS with a density of 1×10^5 cells/ml. Meanwhile, FITC-labeled G(IIKK)3I-NH2 (SEQ ID NO: 3) dissolved in the same buffer was also added to each well to the final concentration of 20 μM. […]
To further confirm the selective responses and cytotoxicity of the peptides, FITC-labeled G(IIKK)3I-NH2 (SEQ ID NO: 3) was synthesized according to the method described previously by Jullian M, et al (Julian et al 2009). […] After incubation for 1 hour, the distribution of FITC-G(IIKK)3I-NH2 (SEQ ID NO: 3) was observed using fluorescence microscopy and the results are shown in FIG. 12. […]

Q: For GIIKKI-NH2 [G(IIKK)I-NH2], which hemolytic activity [1] is on record?
A: The hemolytic activity was “inactive”.

Q: With “GIIKKIIKKIIKKIIKKI-NH2 [Helix G4, G(IIKK)4 I-NH2]” as the substance, how does the viability at 24 h, 5 µM [2] read?
A: The viability at 24 h, 5 µM was 95%.

Q: And the viability at 24 h, 25 µM [2]?
A: Its viability at 24 h, 25 µM is 85%.

Q: What about the viability at 24 h, 50 µM [2] of the same substance?
A: The viability at 24 h, 50 µM was 81%.

Q: And the viability at 24 h, 100 µM [2]?
A: The viability at 24 h, 100 µM was 73%.

Q: And the viability at 48 h, 5 µM [2]?
A: Its viability at 48 h, 5 µM is 92%.

Q: And the viability at 48 h, 25 µM [2]?
A: Its viability at 48 h, 25 µM is 77%.

Q: What about the viability at 48 h, 50 µM [2] of the same substance?
A: The viability at 48 h, 50 µM was 71%.

Q: And the viability at 48 h, 100 µM [2]?
A: Its viability at 48 h, 100 µM is 65%.

Q: And the viability at 72 h, 5 µM [2]?
A: Its viability at 72 h, 5 µM is 79%.

Q: And the viability at 72 h, 25 µM [2]?
A: The viability at 72 h, 25 µM was 74%.

Q: What about the viability at 72 h, 50 µM [2] of the same substance?
A: Its viability at 72 h, 50 µM is 65%.

Q: What about the viability at 72 h, 100 µM [2] of the same substance?
A: Its viability at 72 h, 100 µM is 53%.

Q: And the “MICs (minimum inhibitory concentrations)” value [3]?
A: Its value is 0.5 to 8 µM.

Q: And the viability at 24 h, 5 µM [4]?
A: Its viability at 24 h, 5 µM is 90%.

Q: And the viability at 24 h, 25 µM [4]?
A: The viability at 24 h, 25 µM was 87%.

Q: And the viability at 24 h, 50 µM [4]?
A: The viability at 24 h, 50 µM was 85%.

Q: What about the viability at 24 h, 100 µM [4] of the same substance?
A: The viability at 24 h, 100 µM was 81%.

Q: And the viability at 48 h, 5 µM [4]?
A: The viability at 48 h, 5 µM was 84%.

Q: And the viability at 48 h, 25 µM [4]?
A: Its viability at 48 h, 25 µM is 81%.

Q: What about the viability at 48 h, 50 µM [4] of the same substance?
A: Its viability at 48 h, 50 µM is 78%.

Q: And the viability at 48 h, 100 µM [4]?
A: Its viability at 48 h, 100 µM is 70%.

Q: And the viability at 72 h, 5 µM [4]?
A: Its viability at 72 h, 5 µM is 81%.

Q: And the viability at 72 h, 25 µM [4]?
A: The viability at 72 h, 25 µM was 78%.

Q: And the viability at 72 h, 50 µM [4]?
A: The viability at 72 h, 50 µM was 65%.

Q: And the viability at 72 h, 100 µM [4]?
A: The viability at 72 h, 100 µM was 55%.

Q: And the IC50 [5]?
A: The IC50 was 4 to 25 µM.

Q: Which results are given for “GIIKKIIKKIIKKI-NH2 [Helix G3, G(IIKK)3 I-NH2]”?
A: relative transcriptional levels of IL2 and IL8 of lymphocytes [6]: lower or almost equal to that of control cells; MICs (minimum inhibitory concentrations) [3]: 0.5 to 8 µM; viability at 24 h, 5 µM [4]: 91%; viability at 24 h, 25 µM [4]: 88%; viability at 24 h, 50 µM [4]: 87%; viability at 24 h, 100 µM [4]: 78%; viability at 48 h, 5 µM [4]: 92%; viability at 48 h, 25 µM [4]: 85%; viability at 48 h, 50 µM [4]: 84%; viability at 48 h, 100 µM [4]: 75%; viability at 72 h, 5 µM [4]: 81%; viability at 72 h, 25 µM [4]: 80%; viability at 72 h, 50 µM [4]: 75%; viability at 72 h, 100 µM [4]: 71%; IC50 [5]: 4 to 25 µM

Q: For “FITC-G(IIKK)3I-NH2: N-terminal FITC-labeled G(IIKK)3I-NH2 with 6-aminohexanoic acid (Ahx) between the last amino acid and the thiourea linkage ({FITC-Ahx}-GIIKKIIKKIIKKI-NH2; SMILES CC[C@H](C)[C@H](NC(=O)[C@H](CCCCN)NC(=O)[C@H](CCCCN)NC(=O)[C@@H](NC(=O)[C@@H](NC(=O)[C@H](CCCCN)NC(=O)[C@H](CCCCN)NC(=O)[C@@H](NC(=O)[C@@H](NC(=O)[C@H](CCCCN)NC(=O)[C@H](CCCCN)NC(=O)[C@@H](NC(=O)[C@@H](NC(=O)CNC(=O)CCCCCNC(=S)Nc1ccc2c(c1)C(=O)OC21c2ccc(O)cc2Oc2cc(O)ccc21)[C@@H](C)CC)[C@@H](C)CC)[C@@H](C)CC)[C@@H](C)CC)[C@@H](C)CC)[C@@H](C)CC)C(N)=O)”, which “distribution of green fluorescence of FITC-labeled peptide in co-culture” value [7] is on record?
A: Its value is “concentrated in the bacterial clusters or the HL60 cells but not in any part of the 3T3 cells”.
